Experimental data: the NIST ThermoML archive (doi:10.1021/je050134y)
Numbers after ± are expanded uncertainties.

Assay: activity coefficient (dimensionless); of the first substance listed, at infinite dilution; xn = mol fraction of the nth substance listed
Conditions: 298 K; 101.3 kPa; Liquid; Chromatography; x1 = 0

activity coefficient	Compound
2.69 ± 0.18	C1=CCCC=C1 [1,3-cyclohexadiene] + CCCCCCCC[n+]1ccn(C)c1.F[B-](F)(F)F
21.4 ± 1.5	C=CCCCCCCCC [1-decene] + CCCCCCCC[n+]1ccn(C)c1.F[B-](F)(F)F
32.7 ± 2.2	C=CCCCCCCCCCC [1-dodecene] + CCCCCCCC[n+]1ccn(C)c1.F[B-](F)(F)F
9.76 ± 0.67	C=CCCCCC [1-heptene] + CCCCCCCC[n+]1ccn(C)c1.F[B-](F)(F)F
16.5 ± 1.1	C=CCCCCCCC [1-nonene] + CCCCCCCC[n+]1ccn(C)c1.F[B-](F)(F)F
5.08 ± 0.35	C=CCCC [1-pentene] + CCCCCCCC[n+]1ccn(C)c1.F[B-](F)(F)F
25.8 ± 1.8	C=CCCCCCCCCC [1-undecene] + CCCCCCCC[n+]1ccn(C)c1.F[B-](F)(F)F
2.32 ± 0.16	CCCCO [butan-1-ol] + CCCCCCCC[n+]1ccn(C)c1.F[B-](F)(F)F
36.4 ± 2.5	CCCCCCCCCC [decane] + CCCCCCCC[n+]1ccn(C)c1.F[B-](F)(F)F
77.9 ± 5.3	CCCCCCCCCCCC [dodecane] + CCCCCCCC[n+]1ccn(C)c1.F[B-](F)(F)F
1.75 ± 0.12	CCO [ethanol] + CCCCCCCC[n+]1ccn(C)c1.F[B-](F)(F)F
16 ± 1.1	CCCCCCC [heptane] + CCCCCCCC[n+]1ccn(C)c1.F[B-](F)(F)F
7.06 ± 0.48	C=CCCCC [hex-1-ene] + CCCCCCCC[n+]1ccn(C)c1.F[B-](F)(F)F
2.58 ± 0.18	CCCCCCO [hexan-1-ol] + CCCCCCCC[n+]1ccn(C)c1.F[B-](F)(F)F
12.4 ± 0.8	CCCCCC [hexane] + CCCCCCCC[n+]1ccn(C)c1.F[B-](F)(F)F
1.07 ± 0.07	CO [methanol] + CCCCCCCC[n+]1ccn(C)c1.F[B-](F)(F)F
28.4 ± 1.9	CCCCCCCCC [nonane] + CCCCCCCC[n+]1ccn(C)c1.F[B-](F)(F)F
13.1 ± 0.9	C=CCCCCCC [oct-1-ene] + CCCCCCCC[n+]1ccn(C)c1.F[B-](F)(F)F
22 ± 1.5	CCCCCCCC [octane] + CCCCCCCC[n+]1ccn(C)c1.F[B-](F)(F)F
2.38 ± 0.16	CCCCCO [pentan-1-ol] + CCCCCCCC[n+]1ccn(C)c1.F[B-](F)(F)F
9.07 ± 0.62	CCCCC [pentane] + CCCCCCCC[n+]1ccn(C)c1.F[B-](F)(F)F
2.18 ± 0.15	CCCO [propan-1-ol] + CCCCCCCC[n+]1ccn(C)c1.F[B-](F)(F)F
60.9 ± 4.2	CCCCCCCCCCC [undecane] + CCCCCCCC[n+]1ccn(C)c1.F[B-](F)(F)F
